{
  "source": "patent US8232253B2",
  "about": "“Treatment of lung cancer” (Ramot at Tel-Aviv University Ltd., priority 2006, dated 2012)",
  "key": {"A549 cells [1]": {"system": "A549 cells", "experiment": "Cell growth by direct cell counting", "assay_type": "cell-based", "conditions": "Homo sapiens, A549, 144 h, cells grown 6 days with FTS, read-out: FTS concentration giving a decrease of 50% in A549 cell growth", "protocol": "FTS was provided by Concordia Pharmaceuticals, Inc. (Ft. Lauderdale, Fla.). All cell lines were obtained from American Type Culture Collection (“ATCC”) (Manassas, Va.). A549 cells, non-small-cell lung carcinoma (CCL, ATCC) cells, were cultured in Kaighn's modification of Ham's F-12 medium containing 1.5 g/l sodium bicarbonate, 10% fetal calf serum (FCS), 100 U/ml penicillin, and 100 μg/ml streptomycin. HTB54 lung carcinoma cells were cultured in McCoy's 5A medium with 10% FCS, 100 U/ml penicillin, and 10 μg/ml streptomycin. […] Cells were treated with the indicated concentrations of FTS (Concordia Pharmaceuticals, Sunrise Fla.) or with 0.1% Me2SO4 (DMSO) (vehicle) 24 h after plating and were counted 5 days later. Dead cells were counted after addition of Hoechst 33258 dye (Sigma-Aldrich, St. Louis, Mo.); 1 μg/ml) to vehicle-treated control cultures or to cultures treated for 24 or 48 h with 75 μM FTS. Fluorescence images were collected 5 min after the dye was added.\nTo investigate the effect of FTS on lung cancer cell proliferation, we first incubated A549 cells that harbor the activated K-ras gene mutated at codon 12. […] The number of cells in the FTS-treated cultures was determined by direct counting of A549 cells grown for 6 days in the presence of FTS and was expressed as a percentage of the number recorded in the controls. […]"}, "A549 cells [2]": {"system": "A549 cells", "experiment": "FACS analysis of cell cycle (propidium iodide)", "assay_type": "cell-based, human", "conditions": "for apoptotic population of cells (sub-G1): 75 μM FTS; for reduction in G1 population: FTS", "protocol": "A549 cells were plated (9×10^5 cells) in 10-cm plates, incubated for 24 h in medium containing 5% FCS, and then incubated for 24 or 48 h with or without 75 μM FTS. The cells were collected, resuspended in PBS containing propidium iodide (50 μg/ml; Sigma) and 0.05% Triton X-100, and subjected to analysis by a fluorescence-activated cell sorter (FACSCalibur; Becton Dickinson, Los Angeles, Calif.).\nTo investigate the effect of FTS on lung cancer cell proliferation, we first incubated A549 cells that harbor the activated K-ras gene mutated at codon 12. A549 cells are commonly used as a model for drug screening. […] Increasing concentration of FTS inhibited A549 cell growth at a dose dependent rate, with a decrease of 50% at 40 μM FTS. The number of cells in the FTS-treated cultures was determined by direct counting of A549 cells grown for 6 days in the presence of FTS and was expressed as a percentage of the number recorded in the controls. Data were means of 12 counts ±SD. *P<0.01, **P<0.0005, compared to control (FIG. 3). In another set of experiments, cells were also treated for 24 and 48 h with FTS and collected for FACS analysis (FIG. 4). The apoptotic population of cells (indicated in the FACS analysis as sub-G1) was 3.8% at 24 h and 8.4% at 48 h in cells treated with 75 μM FTS, compared to 1.0% and 2.8%, respectively, in control cells (FIG. 4). […] Thus, FTS induced cell-cycle arrest in A549 cells, resulting in inhibition of cell growth."}, "RhoA-GTP": {"system": "RhoA-GTP", "experiment": "RhoA-GTP pull-down assay in A549 cells", "assay_type": "cell-based, human", "protocol": "A549 cells were incubated for 24 or 48 h with or without FTS, as described above, and then lysed with lysis buffer as described in Haklai, R., Gana-Weisz, M., Elad, G., et al., Biochemistry 37:1306-14 (1998). The apparent amounts of K-Ras-GTP in 0.5 mg protein of total cell lysates were determined by the glutathione-S-transferase (GST)-RBD (Ras-binding domain of Raf) pull-down assay, as described in (Elad-Sfadia, G., Haklai, R., Ballan, E., Gabius, H. J., Kloog, Y., J Biol Chem 277:37169-75 (2002). The apparent amounts of Rac1-GTP and of RhoA-GTP, each in 2 mg protein of total cell lysates, were determined, respectively, by pull-down assays with GST-PBD (Rac1-binding domain of PAK1)-conjugated and GST-Rhotekin BD (Rho-binding domain of Rhotekin)-conjugated beads [Benard, V., Bohl, B. P., Bokoch, G. M, J Biol Chem 274:13198-204 (1999); Fiordalisi, J. J., Keller, P. J., Cox, A. D., Cancer Res 66:3153-61 (2006). […] Levels of phospho-ERK and phospho-Akt were determined by immunoblotting [Haklai, R., Gana-Weisz, M., Elad, G., et al., supra.] using rabbit anti phospho-ERK1/2 Ab (Santa Cruz Biotechnology, Santa Cruz, Calif.) and rabbit anti phospho-Akt Ab (Cell Signaling, Beverly, Mass.). Protein bands were visualized by enhanced chemiluminescence and quantified by densitometry using ImageJ computer software (National institutes of Health, Bethesda, Md.). […]"}},
  "data": [
    {"smiles": "CC(C)=CCC/C(C)=C/CC/C(C)=C/CSc1ccccc1C(=O)O", "note": "[FTS, S-farnesylthiosalicylic acid]", "values": [
      {"measurement": "IC50", "setting": "A549 cells [1]", "value": 40, "unit": "µM"},
      {"measurement": "apoptotic population of cells (sub-G1)", "setting": "A549 cells [2]; 24 h", "value": 3.8, "unit": "%"},
      {"measurement": "apoptotic population of cells (sub-G1)", "setting": "A549 cells [2]; 48 h", "value": 8.4, "unit": "%"},
      {"measurement": "reduction in G1 population", "setting": "A549 cells [2]; 24 h", "value": 5.6, "unit": "%"},
      {"measurement": "reduction in G1 population", "setting": "A549 cells [2]; 48 h", "value": 19, "unit": "%"},
      {"measurement": "increase in RhoA-GTP", "setting": "RhoA-GTP", "value": "2±0.2", "unit": "fold"}
    ]}
  ]
}
